Measurements from BigSolDB 2.1.

O=[N+]([O-])c1cn[nH]c1
solubility (mole fraction)
Details | 288.15 K | 293.15 K | 298.15 K | 303.15 K | 308.15 K | 313.15 K | 318.15 K | 323.15 K | 328.15 K
in THF | 0.00413 | 0.00496 | 0.00592 | 0.00722 | 0.0089 | 0.011 | 0.0134 | 0.017 | 0.022
in acetone | 0.0381 | 0.0405 | 0.0423 | 0.045 | 0.047 | 0.0495 | 0.0525 | 0.0553 | 0.0582
in acetonitrile | 0.0391 | 0.0457 | 0.0529 | 0.0647 | 0.0776 | 0.0906 | 0.108 | 0.124 | 0.135
in ethanol | 0.101 | 0.113 | 0.128 | 0.147 | 0.168 | 0.197 | 0.232 | 0.27 | 0.31
in ethyl acetate | 0.00483 | 0.00609 | 0.00759 | 0.00946 | 0.0118 | 0.0144 | 0.0176 | 0.0214 | 0.0261
in isobutanol | 0.0549 | 0.0648 | 0.0762 | 0.0908 | 0.107 | 0.132 | 0.161 | 0.195 | 0.247
in isopentanol | 0.0629 | 0.0732 | 0.0854 | 0.106 | 0.12 | 0.143 | 0.173 | 0.213 | 0.262
in isopropanol | 0.0481 | 0.0568 | 0.0675 | 0.0827 | 0.0988 | 0.121 | 0.147 | 0.186 | 0.238
in methanol | 0.109 | 0.126 | 0.142 | 0.163 | 0.188 | 0.219 | 0.258 | 0.312 | 0.366
in methyl acetate | 0.00727 | 0.00817 | 0.00942 | 0.0119 | 0.0139 | 0.0169 | 0.0189 | 0.024 | 0.0272
in n-butanol | 0.079 | 0.0902 | 0.104 | 0.12 | 0.14 | 0.166 | 0.199 | 0.241 | 0.283
in n-pentanol | 0.0714 | 0.0823 | 0.095 | 0.112 | 0.132 | 0.156 | 0.189 | 0.232 | 0.276
in n-propanol | 0.0872 | 0.101 | 0.115 | 0.133 | 0.154 | 0.181 | 0.216 | 0.255 | 0.313
in water | 0.00217 | 0.00286 | 0.0036 | 0.00471 | 0.00618 | 0.00763 | 0.00961 | 0.012 | 0.0151
